In ChEMBL document CHEMBL1130823, “New tetrahydronaphthalene derivatives as combined thromboxane receptor antagonists and thromboxane synthase inhibitors” (Bioorg Med Chem Lett, 1998):
pIC50: −log10 of the molar value.

Assays:
Oryctolagus cuniculus = species on record: Oryctolagus cuniculus; test: Inhibition of U-46,619 induced contraction of isolated rabbit saphenous vein.; assay type: functional; details: read-out: pA2 (converted)
Homo sapiens = species on record: Homo sapiens; test: Inhibitory concentration required for the inhibition of U-46,619 induced aggregation of human platelets.; assay type: functional
Thromboxane-A synthase = molecular target: T1, Thromboxane-A synthase (Homo sapiens, UniProt P24557); test: Anti-synthetase activity against TXA2 synthase in human whole blood assay; assay type: tissue-based
T1 sequence (P24557 whole entry): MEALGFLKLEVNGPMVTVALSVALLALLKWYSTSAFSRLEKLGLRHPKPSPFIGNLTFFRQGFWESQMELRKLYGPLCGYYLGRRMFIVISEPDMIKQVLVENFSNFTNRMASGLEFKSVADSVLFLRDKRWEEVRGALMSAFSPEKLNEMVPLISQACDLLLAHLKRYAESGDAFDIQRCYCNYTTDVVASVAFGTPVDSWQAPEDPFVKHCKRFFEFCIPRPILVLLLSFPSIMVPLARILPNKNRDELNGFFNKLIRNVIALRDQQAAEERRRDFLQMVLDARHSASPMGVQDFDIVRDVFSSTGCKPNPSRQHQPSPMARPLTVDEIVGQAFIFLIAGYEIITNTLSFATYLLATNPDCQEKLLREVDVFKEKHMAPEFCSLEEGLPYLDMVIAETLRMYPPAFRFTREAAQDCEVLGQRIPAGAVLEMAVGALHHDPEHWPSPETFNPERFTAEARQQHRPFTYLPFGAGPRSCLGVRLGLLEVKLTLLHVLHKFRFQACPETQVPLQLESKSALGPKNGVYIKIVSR

| Compound | pIC50 (Homo sapiens) | pIC50 (Thromboxane-A synthase) | Kb (Oryctolagus cuniculus) |
| --- | --- | --- | --- |
| CCCCCc1c(Cc2cccnc2)cc2c(c1CCC(=O)O)CCC(NS(=O)(=O)c1ccc(Cl)cc1)C2 (stereo not drawn) | 6.57 | 5.18 | 1.58 nM |
| O=C(O)CCc1c2c(cc(Cc3cccnc3)c1-c1ccccc1)CC(NS(=O)(=O)c1ccc(Cl)cc1)CC2 (stereo not drawn) | 6.74 | < 5.00 | 0.794 nM |
| O=C(O)CCc1c(-c2cccnc2)ccc2c1CCC(NS(=O)(=O)c1ccc(Cl)cc1)C2 (stereo not drawn) | 6.85 | < 5.00 | 0.2 nM |
| O=C(O)CC/C=C/c1c(Cc2cccnc2)ccc2c1CCC(NS(=O)(=O)c1ccc(Cl)cc1)C2 (stereo not drawn) | 7.33 | 5.85 | 0.00794 nM |
| O=C(O)CCc1cc(-c2cccnc2)cc2c1CCC(NS(=O)(=O)c1ccc(Cl)cc1)C2 (stereo not drawn) | 6.17 | < 5.30 | 12.6 nM |
| O=C(O)CCc1c(Cc2cccnc2)ccc2c1CCC(NS(=O)(=O)c1ccc(Cl)cc1)C2 (stereo not drawn) | 7.70 | < 5.00 | 0.316 nM |
| O=C(O)CCC/C=C\c1cc(Cc2cccnc2)cc2c1CCC(NS(=O)(=O)c1ccc(Cl)cc1)C2 (stereo not drawn) | 7.05 | 5.38 | 2.51 nM |
| Cc1c(Cc2cccnc2)cc2c(c1/C=C\CCCC(=O)O)CCC(NS(=O)(=O)c1ccc(Cl)cc1)C2 (stereo not drawn) | 6.00 | 6.02 | 10 nM |
| O=C(O)CCC/C=C\c1c(Cc2cccnc2)ccc2c1CCC(NS(=O)(=O)c1ccc(Cl)cc1)C2 (stereo not drawn) | 6.80 | 6.46 | 0.2 nM |
| O=C(O)CCC/C=C/c1c(Cc2cccnc2)ccc2c1CCC(NS(=O)(=O)c1ccc(Cl)cc1)C2 (stereo not drawn) | 6.35 | 5.96 | 1.26 nM |
| Cc1c(Cc2cccnc2)cc2c(c1CCC(=O)O)CCC(NS(=O)(=O)c1ccc(Cl)cc1)C2 (stereo not drawn) | 6.21 | 6.07 | 158 nM |

Continued by rising pIC50 (Homo sapiens), values first:

| pIC50 (Homo sapiens) | pIC50 (Thromboxane-A synthase) | Compound | Kb (Oryctolagus cuniculus) |
| --- | --- | --- | --- |
| 5.92 | < 5.30 | O=C(O)CCC/C=C/c1cc(Cc2cccnc2)cc2c1CCC(NS(=O)(=O)c1ccc(Cl)cc1)C2 (stereo not drawn) | 2 nM |
| 6.34 | 5.54 | Cc1c(Cc2cccnc2)cc2c(c1/C=C/CCCC(=O)O)CCC(NS(=O)(=O)c1ccc(Cl)cc1)C2 (stereo not drawn) | 7.94 nM |
| 7.20 | 6.19 | CCCc1c(Cc2cccnc2)cc2c(c1CCC(=O)O)CCC(NS(=O)(=O)c1ccc(Cl)cc1)C2 (stereo not drawn) | 3.98 nM |
| 8.05 | < 5.00 | O=C(O)CC/C=C/c1cc(Cc2cccnc2)cc2c1CCC(NS(=O)(=O)c1ccc(Cl)cc1)C2 (stereo not drawn) | 0.398 nM |
| 8.15 | 5.96 | O=C(O)CCc1cc(Cc2cccnc2)cc2c1CCC(NS(=O)(=O)c1ccc(Cl)cc1)C2 (stereo not drawn) | 0.2 nM |
